Experimental data published in paper PMC8911723, “Design, Synthesis, and Cytotoxic Activity of Novel Natural Arylsulfonamide-Inspired Molecules” (Molecules, 2022).
Values after ≈ are worked out from the molar mass of the structure shown.

Key:
[1] = system: MARC145 (a subclone of African green monkey kidney cell line MA-104); assay: MTT in vitro cytotoxicity assay, MARC145 cells; assay type: cell-based; conditions: MARC145 cells; concentration 40 µg/mL; preliminary screening (Figure 4)
Text: (§1) Pharmacological evaluation: All target carboxamide derivatives derived from natural arylsulfonamides 10a–r were screened for their potential in vitro cytotoxic effects on A875 (human melanoma), HepG2 (human hepatocellular liver carcinoma), and MARC145 (A subclone of African green monkey kidney cell line MA-104) cell lines using the standard MTT assay, with 5-FU (5-fluorouracil) as a positive control. The IC50 value represents the drug concentration required to inhibit cell growth by 50%.
(§2) Bioassays: The in vitro cytotoxicity of the novel carbazole derivatives against human melanoma (A875), human hepatocellular liver carcinoma (HepG2), and a subclone of African green monkey kidney cell line MA-104 (MARC145) cell lines was evaluated using the MTT assay. All data were analyzed with SPSS software, and the 50% inhibitory concentrations (IC50) of each compound for the different cell lines were determined. All assays were performed in triplicate on three independent experiments.

[2] = MTT in vitro cytotoxicity assay, MARC145 cells; assay type: cell-based, African green monkey; conditions: MARC145 kidney cells (subclone of MA-104); MARC145 African green monkey kidney cell line; MTT assay; triplicate, three independent experiments
Text: as §1, §2

[3] = MTT in vitro cytotoxicity assay, A875 cells; assay type: cell-based; conditions: A875 melanoma cells, A875 human melanoma cell line, triplicate, three independent experiments
Text: as §1, §2

[4] = system: HepG2 (human hepatocellular liver carcinoma) cell line; assay: MTT in vitro cytotoxicity assay, HepG2 cells; assay type: cell-based; conditions: HepG2 cells; concentration 40 µg/mL; preliminary screening (Figure 4)
Text: as §1, §2

[5] = MTT in vitro cytotoxicity assay, HepG2 cells; assay type: cell-based, human; conditions: HepG2 hepatocellular liver carcinoma cells; HepG2 human hepatocellular liver carcinoma cell line; MTT assay; triplicate, three independent experiments
Text: as §1, §2

Row | melting point | SMILES | Inhibitory activity at 40 µg/mL compared with control 5-FU [1] | IC50 [2] | IC50 [3] | Inhibitory activity at 40 µg/mL compared with control 5-FU [4] | IC50 [5]
1 | 163 to 164 °C | O=C(Nc1ccc(S(=O)(=O)Nc2ccccc2-c2ccccc2)cc1)c1ccccc1-c1ccc(C(F)(F)F)cc1 [10m, N-(4-(N-([1,1′-Biphenyl]-2-yl)sulfamoyl)phenyl)-4′-(trifluoromethyl)-[1,1′-biphenyl]-2-carboxamide] |  | > 40 µg/mL | > 40 µg/mL |  | > 40 µg/mL
2 | 156 to 157 °C | O=C(Nc1ccc(S(=O)(=O)Nc2ccccc2-c2ccccc2)cc1)c1cc(Br)nn1-c1ncccc1Cl [10e, N-(4-(N-([1,1′-Biphenyl]-2-yl)sulfamoyl)phenyl)-3-bromo-1-(3-chloropyridin-2-yl)-1H-pyrazole-5-carboxamide] |  | > 40 µg/mL | > 40 µg/mL |  | > 40 µg/mL
3 | 166 to 167 °C | CC(C(=O)Nc1ccc(S(=O)(=O)Nc2ccccc2Oc2ccccc2)cc1)c1ccc2c(c1)[nH]c1ccc(Cl)cc12 (stereo not drawn) [10r, 2-(6-Chloro-9H-carbazol-2-yl)-N-(4-(N-(2-phenoxyphenyl)sulfamoyl)phenyl)propanamide] | significantly higher activities compared with the control | 5.96 ± 1.33 µg/mL (≈ 10 µM) | 15.2 ± 2.4 µg/mL (≈ 25.4 µM) | significantly higher activities compared with the control | 8.84 ± 1.68 µg/mL (≈ 14.8 µM)
4 | 177 to 178 °C | O=C(Nc1ccc(S(=O)(=O)Nc2ccccc2Oc2ccccc2)cc1)c1cc(Br)nn1-c1ncccc1Cl [10f, 3-Bromo-1-(3-chloropyridin-2-yl)-N-(4-(N-(2-phenoxyphenyl)sulfamoyl)phenyl)-1H-pyrazole-5-carboxamide] |  | 11.8 ± 2.93 µg/mL (≈ 18.9 µM) | > 40 µg/mL |  | > 40 µg/mL
5 | 199 to 200 °C | Cc1onc(NS(=O)(=O)c2ccc(NC(=O)c3ccccc3-c3ccc(C(F)(F)F)cc3)cc2)c1C [10o, N-(4-(N-(4,5-Dimethylisoxazol-3-yl)sulfamoyl)phenyl)-4′-(trifluoromethyl)-[1,1′-biphenyl]-2-carboxamide] |  | > 40 µg/mL | > 40 µg/mL |  | > 40 µg/mL
6 | 156 to 157 °C | Cc1onc(NS(=O)(=O)c2ccc(NC(=O)c3cccc(-c4ccccc4)c3C)cc2)c1C [10k, N-(4-(N-(4,5-Dimethylisoxazol-3-yl)sulfamoyl)phenyl)-2-methyl-[1,1′-biphenyl]-3-carboxamide] |  | > 40 µg/mL | > 40 µg/mL |  | 34.7 ± 2.94 µg/mL (≈ 75.2 µM)
7 | 173 to 174 °C | O=C(Nc1ccc(S(=O)(=O)Nc2ccccc2Oc2ccccc2)cc1)c1ccccc1-c1ccc(C(F)(F)F)cc1 [10n, N-(4-(N-(2-Phenoxyphenyl)sulfamoyl)phenyl)-4′-(trifluoromethyl)-[1,1′-biphenyl]-2-carboxamide] |  | 22.6 ± 2.78 µg/mL (≈ 38.3 µM) | > 40 µg/mL |  | > 40 µg/mL

Continued, molecule first:

Row | SMILES | melting point | Inhibitory activity at 40 µg/mL compared with control 5-FU [1] | IC50 [2] | IC50 [3] | Inhibitory activity at 40 µg/mL compared with control 5-FU [4] | IC50 [5]
8 | CC(C(=O)Nc1ccc(S(=O)(=O)Nc2ccccc2C(F)(F)F)cc1)c1ccc2c(c1)[nH]c1ccc(Cl)cc12 (stereo not drawn) [10q, 2-(6-Chloro-9H-carbazol-2-yl)-N-(4-(N-(2-(trifluoromethyl)phenyl)sulfamoyl)phenyl)propanamide] | 159 to 160 °C | significantly higher activities compared with the control | 2.95 ± 0.78 µg/mL (≈ 5.16 µM) | 4.19 ± 0.78 µg/mL (≈ 7.33 µM) | significantly higher activities compared with the control | 3.55 ± 0.63 µg/mL (≈ 6.21 µM)
9 | Cc1onc(NS(=O)(=O)c2ccc(NC(=O)c3cc(Br)nn3-c3ncccc3Cl)cc2)c1C [10g, 3-Bromo-1-(3-chloropyridin-2-yl)-N-(4-(N-(4,5-dimethylisoxazol-3-yl)sulfamoyl)phenyl)-1H-pyrazole-5-carboxmide] | 171 to 172 °C |  | > 40 µg/mL | > 40 µg/mL |  | > 40 µg/mL
10 | Cc1onc(NS(=O)(=O)c2ccc(NC(=O)c3ccccc3C(F)(F)F)cc2)c1C [10c, N-(4-(N-(4,5-Dimethylisoxazol-3-yl)sulfamoyl)phenyl)-2-(trifluoromethyl)benzamide] | 183 to 184 °C |  | > 40 µg/mL | > 40 µg/mL |  | > 40 µg/mL
11 | O=C(Nc1ccc(S(=O)(=O)Nc2ccccc2Oc2ccccc2)cc1)c1ccccc1C(F)(F)F [10b, N-(4-(N-(2-Phenoxyphenyl)sulfamoyl)phenyl)-2-(trifluoromethyl)benzamide] |  |  | > 40 µg/mL | > 40 µg/mL |  | > 40 µg/mL
12 | O=C(Nc1ccc(S(=O)(=O)Nc2ccccc2C(F)(F)F)cc1)c1ccccc1-c1ccc(C(F)(F)F)cc1 [10p, 4′-(Trifluoromethyl)-N-(4-(N-(2-(trifluoromethyl)phenyl)sulfamoyl)phenyl)-[1,1′-biphenyl]-2-carboxamide] |  | significantly higher activities compared with the control | 8.5 ± 2.55 µg/mL (≈ 15.1 µM) | 20.4 ± 3.99 µg/mL (≈ 36.2 µM) | significantly higher activities compared with the control | 9.6 ± 0.88 µg/mL (≈ 17 µM)
13 | COC(=O)c1ccccc1NC(=O)c1ccccc1NS(=O)(=O)c1ccc(-c2ccccc2)cc1 [NC2, Methyl 2-(2-([1,1′-biphenyl]-4-sulfonamido)benzamido)benzoate] |  |  | > 40 µg/mL | > 40 µg/mL |  | 
14 | Cc1c(C(=O)Nc2ccc(S(=O)(=O)Nc3ccccc3-c3ccccc3)cc2)cccc1-c1ccccc1 [10i, N-(4-(N-([1,1′-Biphenyl]-2-yl)sulfamoyl)phenyl)-2-methyl-[1,1′-biphenyl]-3-carboxamide] |  |  | > 40 µg/mL | > 40 µg/mL |  | > 40 µg/mL
15 | O=C(Nc1ccc(S(=O)(=O)Nc2ccccc2-c2ccccc2)cc1)c1ccccc1C(F)(F)F [10a, N-(4-(N-([1,1′-Biphenyl]-2-yl)sulfamoyl)phenyl)-2-(trifluoromethyl)benzamide] |  |  | 13.2 ± 2.49 µg/mL (≈ 26.5 µM) | > 40 µg/mL |  | 22.1 ± 3.99 µg/mL (≈ 44.4 µM)
16 | O=C(Nc1ccc(S(=O)(=O)Nc2ccccc2C(F)(F)F)cc1)c1ccccc1C(F)(F)F [10d, 2-(Trifluoromethyl)-N-(4-(N-(2-(trifluoromethyl)phenyl)sulfamoyl)phenyl)benzamide] |  |  | 24.9 ± 4.45 µg/mL (≈ 51 µM) | > 40 µg/mL |  | 33.1 ± 2.13 µg/mL (≈ 67.7 µM)
17 | O=C(Nc1ccc(S(=O)(=O)Nc2ccccc2C(F)(F)F)cc1)c1cc(Br)nn1-c1ncccc1Cl [10h, 3-Bromo-1-(3-chloropyridin-2-yl)-N-(4-(N-(2-(trifluoromethyl)phenyl)sulfamoyl)phenyl)-1H-pyrazole-5-carboxamide] | 181 to 182 °C |  | 6.75 ± 0.89 µg/mL (≈ 11.2 µM) | 16.8 ± 1.14 µg/mL (≈ 27.9 µM) |  | 14.4 ± 1.89 µg/mL (≈ 23.9 µM)
18 | O=C(O)c1ccccc1NS(=O)(=O)c1ccc(-c2ccccc2)cc1 [NC1, 2-([1,1′-Biphenyl]-4-sulfonamido)benzoic acid] | 205 to 207 °C |  | 25.8 ± 10.4 µg/mL (≈ 73 µM) | 27.2 ± 5.39 µg/mL (≈ 76.9 µM) |  | 
19 | O=c1[nH]cc(F)c(=O)[nH]1 [5-FU, 5-fluorouracil, reference compound] |  |  | 13.1 ± 1.32 µg/mL (≈ 100 µM) | 11.8 ± 2.03 µg/mL (≈ 90.4 µM) |  | 15.1 ± 1.06 µg/mL (≈ 116 µM)
20 | Cc1c(C(=O)Nc2ccc(S(=O)(=O)Nc3ccccc3C(F)(F)F)cc2)cccc1-c1ccccc1 [10l, 2-Methyl-N-(4-(N-(2-(trifluoromethyl)phenyl)sulfamoyl)phenyl)-[1,1′-biphenyl]-3-carboxamide] |  | significantly higher activities compared with the control | 5.62 ± 0.98 µg/mL (≈ 11 µM) | 10.8 ± 2.28 µg/mL (≈ 21.1 µM) | significantly higher activities compared with the control | 9.03 ± 1.49 µg/mL (≈ 17.7 µM)
21 | Cc1c(C(=O)Nc2ccc(S(=O)(=O)Nc3ccccc3Oc3ccccc3)cc2)cccc1-c1ccccc1 [10j, 2-Methyl-N-(4-(N-(2-phenoxyphenyl)sulfamoyl)phenyl)-[1,1′-biphenyl]-3-carboxamide] |  |  | > 40 µg/mL | > 40 µg/mL |  | > 40 µg/mL
